{"source": "paper PMC7192969", "about": "(Journal of Pharmaceutical Analysis, 2019)", "key": {"SD rats": {"test_system": "SD rats", "assay": "Freund's adjuvant induced hind paw edema, anti-inflammatory effect", "format": "in vivo, rat"}, "[1]": {"assay": "Pharmacokinetics of aconitine in plasma after oral administration", "format": "in vivo", "details": "male, Sprague-Dawley, rat, 1 mg/kg; for half-life: t1/2z"}, "[2]": {"details": "0 h, 10 mg/kg oral in combination with aconitine 1 mg/kg"}, "[3]": {"details": "1 h, 10 mg/kg oral in combination with aconitine 1 mg/kg"}, "[4]": {"details": "2 h, 10 mg/kg oral in combination with aconitine 1 mg/kg"}, "[5]": {"details": "4 h, 10 mg/kg oral in combination with aconitine 1 mg/kg"}, "[6]": {"details": "6 h, 10 mg/kg oral in combination with aconitine 1 mg/kg"}, "[7]": {"details": "Group A: aconitine at 1 mg/kg oral, alone"}, "[8]": {"details": "Group B: aconitine at 1 mg/kg + liquiritin at 10 mg/kg oral"}, "[9]": {"details": "Group D: aconitine at 1 mg/kg + glycyrrhizic acid at 10 mg/kg oral"}, "[10]": {"details": "Group E: aconitine at 1 mg/kg + glycyrrhetinic acid at 10 mg/kg oral"}}}
{"smiles": "CC1(C)[C@@H](O[C@H]2O[C@H](C(=O)O)[C@@H](O)[C@H](O)[C@H]2O[C@@H]2O[C@H](C(=O)O)[C@@H](O)[C@H](O)[C@H]2O)CC[C@]2(C)[C@H]3C(=O)C=C4[C@@H]5C[C@@](C)(C(=O)O)CC[C@]5(C)CC[C@@]4(C)[C@]3(C)CC[C@@H]12", "note": "[Glycyrrhizic acid, glycyrrhizic acid]", "values": [{"measurement": "hind paw volume", "setting": "SD rats; [2]", "value": "1.72 ± 0.03", "unit": "mL"}, {"measurement": "hind paw volume", "setting": "SD rats; [3]", "value": "1.92 ± 0.05∗ mL"}, {"measurement": "hind paw volume", "setting": "SD rats; [4]", "value": "1.96 ± 0.09∗ mL"}, {"measurement": "hind paw volume", "setting": "SD rats; [5]", "value": "1.99 ± 0.11∗ mL"}, {"measurement": "hind paw volume", "setting": "SD rats; [6]", "value": "2.14 ± 0.08∗ mL"}]}
{"smiles": "CC1(C)[C@@H](O)CC[C@]2(C)[C@H]3C(=O)C=C4[C@@H]5C[C@@](C)(C(=O)O)CC[C@]5(C)CC[C@@]4(C)[C@]3(C)CC[C@@H]12", "note": "[Glycyrrhetinic acid, glycyrrhetinic acid]", "values": [{"measurement": "hind paw volume", "setting": "SD rats; [2]", "value": "1.71 ± 0.05", "unit": "mL"}, {"measurement": "hind paw volume", "setting": "SD rats; [3]", "value": "1.80 ± 0.02∗# mL"}, {"measurement": "hind paw volume", "setting": "SD rats; [4]", "value": "1.79 ± 0.03∗# mL"}, {"measurement": "hind paw volume", "setting": "SD rats; [5]", "value": "1.91 ± 0.09∗ mL"}, {"measurement": "hind paw volume", "setting": "SD rats; [6]", "value": "2.10 ± 0.06∗# mL"}]}
{"smiles": "O=C1C[C@@H](c2ccc(O[C@@H]3O[C@H](CO)[C@@H](O)[C@H](O)[C@H]3O)cc2)Oc2cc(O)ccc21", "note": "[Liquiritin, liquiritin]", "values": [{"measurement": "hind paw volume", "setting": "SD rats; [2]", "value": "1.70 ± 0.05", "unit": "mL"}, {"measurement": "hind paw volume", "setting": "SD rats; [3]", "value": "1.78 ± 0.12∗ mL"}, {"measurement": "hind paw volume", "setting": "SD rats; [4]", "value": "1.81 ± 0.10∗# mL"}, {"measurement": "hind paw volume", "setting": "SD rats; [5]", "value": "1.83 ± 0.09∗# mL"}, {"measurement": "hind paw volume", "setting": "SD rats; [6]", "value": "1.96 ± 0.14∗# mL"}]}
{"smiles": "CCN1C[C@]2(COC)[C@H](O)C[C@H](OC)[C@@]34[C@@H]5C[C@@]6(O)[C@H](OC(=O)c7ccccc7)[C@@H]5[C@@](OC(C)=O)([C@@H]([C@H](OC)[C@H]23)[C@@H]14)[C@@H](O)[C@@H]6OC", "note": "[Aconitine, aconitine]", "values": [{"measurement": "hind paw volume", "setting": "SD rats; 0 h, 1 mg/kg oral, alone", "value": "1.70 ± 0.06", "unit": "mL"}, {"measurement": "hind paw volume", "setting": "SD rats; 1 h, 1 mg/kg oral, alone", "value": "1.87 ± 0.10∗ mL"}, {"measurement": "hind paw volume", "setting": "SD rats; 2 h, 1 mg/kg oral, alone", "value": "1.99 ± 0.15", "unit": "mL"}, {"measurement": "hind paw volume", "setting": "SD rats; 4 h, 1 mg/kg oral, alone", "value": "2.02 ± 0.12∗ mL"}, {"measurement": "hind paw volume", "setting": "SD rats; 6 h, 1 mg/kg oral, alone", "value": "2.19 ± 0.05∗ mL"}, {"measurement": "AUC(0-t)", "setting": "[1]", "value": "33.7 ± 7.47", "unit": "ng·h/mL"}, {"measurement": "AUC(0-t)", "setting": "[1]; [7]", "value": "25.8 ± 4.36", "unit": "ng·h/mL"}, {"measurement": "AUC(0-t)", "setting": "[1]; [8]", "value": "30 ± 6.63", "unit": "ng·h/mL"}, {"measurement": "AUC(0-t)", "setting": "[1]; [9]", "value": "29.1 ± 4.44", "unit": "ng·h/mL"}, {"measurement": "AUC(0-t)", "setting": "[1]; [10]", "value": "19.9 ± 3.61", "unit": "ng·h/mL"}, {"measurement": "AUC(0-inf)", "setting": "[1]", "value": "34.5 ± 7.07", "unit": "ng·h/mL"}, {"measurement": "AUC(0-inf)", "setting": "[1]; [7]", "value": "29.1 ± 6.15", "unit": "ng·h/mL"}, {"measurement": "AUC(0-inf)", "setting": "[1]; [8]", "value": "31.9 ± 5.6", "unit": "ng·h/mL"}, {"measurement": "AUC(0-inf)", "setting": "[1]; [9]", "value": "33.6 ± 6.93", "unit": "ng·h/mL"}, {"measurement": "AUC(0-inf)", "setting": "[1]; [10]", "value": "20.7 ± 3.55", "unit": "ng·h/mL"}, {"measurement": "Cmax", "setting": "[1]", "value": "9.19 ± 1.38", "unit": "ng/mL"}, {"measurement": "Cmax", "setting": "[1]; [7]", "value": "4.8 ± 0.966", "unit": "ng/mL"}, {"measurement": "Cmax", "setting": "[1]; [8]", "value": "5.77 ± 0.831", "unit": "ng/mL"}, {"measurement": "Cmax", "setting": "[1]; [9]", "value": "5.73 ± 0.7", "unit": "ng/mL"}, {"measurement": "Cmax", "setting": "[1]; [10]", "value": "5.88 ± 0.73", "unit": "ng/mL"}, {"measurement": "Tmax", "setting": "[1]", "value": "0.667 ± 0.258", "unit": "h"}, {"measurement": "Tmax", "setting": "[1]; [7]", "value": "1.08 ± 0.376", "unit": "h"}, {"measurement": "Tmax", "setting": "[1]; [8]", "value": "1.67 ± 0.408", "unit": "h"}, {"measurement": "Tmax", "setting": "[1]; [9]", "value": "1.42 ± 0.585", "unit": "h"}, {"measurement": "Tmax", "setting": "[1]; [10]", "value": "0.833 ± 0.258", "unit": "h"}, {"measurement": "half-life", "setting": "[1]", "value": "131 ± 14.9", "unit": "min"}, {"measurement": "half-life", "setting": "[1]; [7]", "value": "232 ± 61.2", "unit": "min"}, {"measurement": "half-life", "setting": "[1]; [8]", "value": "196 ± 88.8", "unit": "min"}, {"measurement": "half-life", "setting": "[1]; [9]", "value": "209 ± 63.6", "unit": "min"}, {"measurement": "half-life", "setting": "[1]; [10]", "value": "114 ± 25.4", "unit": "min"}]}
{"smiles": "COc1ccc2c(c1)c(CC(=O)O)c(C)n2C(=O)c1ccc(Cl)cc1", "note": "[Indomethacin, reference compound]", "values": [{"measurement": "hind paw volume", "setting": "SD rats; 0 h, 1 mg/kg oral, alone", "value": "1.67 ± 0.09", "unit": "mL"}, {"measurement": "hind paw volume", "setting": "SD rats; 1 h, 1 mg/kg oral, alone", "value": "2.00 ± 0.11", "unit": "mL"}, {"measurement": "hind paw volume", "setting": "SD rats; 2 h, 1 mg/kg oral, alone", "value": "2.04 ± 0.15", "unit": "mL"}, {"measurement": "hind paw volume", "setting": "SD rats; 4 h, 1 mg/kg oral, alone", "value": "2.15 ± 0.10∗ mL"}, {"measurement": "hind paw volume", "setting": "SD rats; 6 h, 1 mg/kg oral, alone", "value": "2.19 ± 0.18∗ mL"}]}
